Values of other authors in US5710046A, “Tagging hydrocarbons for subsequent identification” (Amoco Corporation, priority 1994, dated 1998).

[1] = dispersed in methanol or benzene

fluorescence wavelength [1]: approximately 840 nanometers | strong absorption [1]: 786 nanometers | fluorescence (in water): completely non-fluorescent | solubility (in water): less soluble
Structure (SMILES): CCN1C(=CC=CC=CC=Cc2sc3ccc4ccccc4c3[n+]2CC)Sc2ccc3ccccc3c21 [DDTC, 3,3'-diethyl-2,2'-(4,5', 4',5'-dibenzo) thiatricarbocyanine iodide]
